Data as given in patent US4731370A, “Pyridyl ester containing 1,4-dihydropyridine derivatives and salts thereof and pharmaceutical composition containing the same” (Toyama Chemical Co., Ltd., priority 1984, dated 1988).

Key:
[1] = system: vertebral artery blood flow of a dog; test: Vertebral artery blood flow increasing activity; assay type: in vivo, dog (mongrel); conditions: i.v., amount with same activity as 1 mg/kg (i.v.) papaverine hydrochloride, ratio to papaverine hydrochloride
Experimental: (§1) The compounds of this invention to be tested were used in the form of a hydrochloride.
The vertebral artery blood flow of a dog (mongrel, 12-22 kg, 2-3 heads per group) anesthetized with pentobarbital sodium (30 mg/kg, i.v.) was measured by means of an electromagnetic flow meter (MFV-2100 manufactured by Nihon Kohden Kogyo).
The test compounds 1, 3 and 10 were adjusted to a concentration of 1 mg/ml with distilled water, and then diluted with a saline solution to the desired concentrations, after which the thus diluted solutions were intravenously administered, and the test compounds 12, 15, 18, 19, 20, 24, 29, 30, 32 and 33 were formed into solutions in the same manner as in Item 1 above and then intravenously administered.

[2] = system: Thromboxane-Synthesizing Enzyme; test: Thromboxane-synthesizing enzyme-inhibitory activity (MDA production in platelet-rich plasma after oral dosing); assay type: in vivo, rat (Wistar strain); conditions: rat, 3 mg/kg, blood after one hour
Experimental: as §1
To a rat (Wistar strain, male, 300-350 g, 4 heads per group) which had been starved overnight was orally administered a test compound solution, and blood was collected from the abdominal aorta using citric acid after one hour. Two milliliters of a 1×10^9 /ml platelet-rich plasma (PRP) was preincubated at 37° C. for 2 minutes. Subsequently, 0.1 ml of 10 mM sodium archidonate was added, and the resulting mixture was subjected to reaction for 6 minutes, after which indomethacin was added thereto to terminate the reaction. The reaction mixture was subjected to deproteinization treatment and reacted with thiobarbituric acid (TBA) reagent, after which the reaction mixture was subjected to extraction with 3 ml of n-butanol. The resulting extract was subjected to colorimetry (λ=532 nm) to determine the amount of malondialdehyde (MDA) produced. As to the platelet-poor plasma (PPP) obtained from the same rat as above, the same procedure as above was repeated to determine the amount of MDA produced, and the difference between the two is indicated as MDA value. Comparing with the MDA values of the control group, the MDA production-inhibition (%) was determined.
The test compounds 1-9 were adjusted to the desired concentrations with water and the test compounds 11-33 and nicardipine were adjusted to a concentration of 5 mg/ml with an aqueous solution containing 10% of each of dimethyl sulfoxide and Cremophor and then diluted with water to the desired concentrations.

[3] = system: mouse pulmonary infraction model; test: Antithrombosis activity, mouse pulmonary infraction model, paralytic time-shortening (0.15 ml epinephrine/collagen); assay type: in vivo, mouse (ICR strain); conditions: 1 h, oral, 10 mg/kg, challenge after one hour, 10 mice, read-out: Paralytic time-shortening percentage
Experimental: as §1
Comparing the paralytic time of the control group, the paralytic time-shortening percentage due to the compound to be tested was determined.
(§2) The test compounds shown in Table 4 were adjusted to the desired concentrations with water, and the test compounds shown in Table 5 were adjusted to a concentration of 5 mg/ml with an aqueous solution containing 10% by volume of each of dimethyl sulfoxide and Cremophor, and then diluted with water to the desired concentrations.

[4] = Acute toxicity, intravenous, mice; conditions: mouse, in vivo, mice (ICR, male, 4 weeks old, 5 per group)
[5] = system: coronary vessel (isolated guinea pig heart); test: Coronary vasodilating activity (isolated perfused guinea pig heart, coronary effluent); set-up: species or system guinea pig (Hartley strain); conditions: Langendorff perfusion, 0.1 ml into aorta, hydrochloride
Experimental: as §1
The heart of a guinea pig (Hartley strain, male, 500-700 g, 3 heads per group) was isolated and set in the Landendorff perfusing apparatus. About 0.5% defibrinated blood was fed to the apparatus, and the Krebs bicarbonate solution, into which a mixed gas consisting of 95% of O2 and 5% of CO2 had been bubbled was perfused over the heart, after which a 1 mg/ml solution of the test compound in an aqueous solution containing 10% by volume of dimethylsulfoxide and 10% of polyoxyethylfatty acid glyceride [Cremophor EL manufactured by Sigma] was prepared, diluted with a saline solution to the desired concentration, and then administered into the heart in an amount of 0.1 ml through the rubber tube attached to the cannula inserted retrogressively into the aorta. The vasodilating activity was determined by measuring the amount of the solution effluent from the coronary vessel after passing through the aorta by means of an electric drop counter (universal drop counter manufactured by Natsume Seisakusho) and indicated as ED50 value which is the amount necessary for the amount of the effluent solution to increase 50% as compared with those before addition of the test compound.

[6] = system: mouse pulmonary infraction model; test: Antithrombosis activity, mouse pulmonary infraction model, prevention of death and paralysis (0.10 ml epinephrine/collagen); assay type: in vivo, mouse (ICR strain); conditions: 1 h; mouse, oral, 10 mg/kg, challenge after one hour; control 25.7%; read-out: Preventive percentage of death + paralysis for 10 minutes or more
Experimental: as §1
According to the G. DiMinno and M. J. Silver method [J. Pharmacol. Exp. Therap., 225 (1) 57-60 (1983)], a solution of the compound to be tested was orally administered to a mouse (ICR strain, male, 4 weeks old), and 0.15 ml of a mixed solution of epinephrine (100 μM) and collagen (150 μg/ml) was intravenously administered to the mouse after one hour, after which the paralytic time was measured. Comparing the paralytic time of the control group, the paralytic time-shortening percentage due to the compound to be tested was determined. The results obtained are shown in Table 4, in which the case where the paralytic time was 15 minutes was calculated as death.
Moreover, the same experiment was repeated, except that 0.10 ml of a mixed solution of epinephrine (100 μM) and collagen (150 μg/ml) was intravenously administered to the mouse and the effect of preventing the appearance of death and a case where the paralytic time was 10 minutes or more was checked and the results thereof are shown in Table 5.
as §2

Row | SMILES | Effect ratio [1] | MDA production-inhibition [2] | inhibition in vivo at 10 mg/kg [3] | LD50 [4] | ED50 (amount necessary for the amount of the effluent solution to increase 50%) [5] | responders at 10 mg/kg [6]
1 | COCCOC(=O)C1=C(C)NC(C)=C(C(=O)OCCN(C)C/C(C)=C/c2ccc(Cc3cccnc3)cc2)C1c1cccc([N+](=O)[O-])c1 (stereo not drawn) [compound 3] | 385 | 65.8% | – | – | – | –
2 | CCOC(=O)C1=C(C)NC(C)=C(C(=O)OCCN(C)C/C(C)=C/c2ccc(Cc3cccnc3)cc2)C1c1cccc([N+](=O)[O-])c1 (stereo not drawn) [compound 4] | – | 53.6% | 38.6% | – | – | –
3 | CC1=C(C(=O)OCCN(C)C/C=C/c2ccc(Cn3ccnc3)cc2)C(c2cccc([N+](=O)[O-])c2)C(C(=O)OC(C)C)=C(C)N1 (stereo not drawn) [compound 9] | – | 47.2% | – | ≥ 30 mg/kg | – | –
4 | CCOC(=O)C1=C(C)NC(C)=C(C(=O)OCCOCCCc2ccc(Cn3ccnc3)cc2)C1c1cccc([N+](=O)[O-])c1 (stereo not drawn) [compound 11] | – | 37.8% | – | – | – | –
5 | CCOC(=O)C1=C(C)NC(C)=C(C(=O)OCCOC/C(C)=C/c2ccc(Cc3cccnc3)cc2)C1c1cccc([N+](=O)[O-])c1 (stereo not drawn) [compound 12] | 345 | 48.1% | – | ≥ 75 mg/kg | 0.026 μg/i.c. | 77.8%
6 | CCOC(=O)C1=C(C)NC(C)=C(C(=O)OCCOC/C=C/c2ccc(Cn3ccnc3)cc2)C1c1cccc([N+](=O)[O-])c1 (stereo not drawn) [compound 13] | – | 47.2% | – | – | 0.036 μg/i.c. | –
7 | CCOC(=O)C1=C(C)NC(C)=C(C(=O)OCCOCc2ccc(Cn3ccnc3)cc2)C1c1cccc([N+](=O)[O-])c1 (stereo not drawn) [compound 14] | – | – | – | – | 0.023 μg/i.c. | –
8 | CCOC(=O)C1=C(C)NC(C)=C(C(=O)OCCOCc2ccc(Cc3cccnc3)cc2)C1c1cccc([N+](=O)[O-])c1 (stereo not drawn) [compound 15] | 238 | – | – | – | 0.0092 μg/i.c. | –
9 | CCOC(=O)C1=C(C)NC(C)=C(C(=O)OCCOC/C=C/c2ccc(Cc3cccnc3)cc2)C1c1cccc([N+](=O)[O-])c1 (stereo not drawn) [compound 16] | – | 31.6% | – | ≥ 75 mg/kg | 0.0105 μg/i.c. | –
10 | COC(=O)C1=C(C)NC(C)=C(C(=O)OCCOC/C(C)=C/c2ccc(Cc3cccnc3)cc2)C1c1cccc([N+](=O)[O-])c1 (stereo not drawn) [compound 17] | – | 58.6% | – | ≥ 75 mg/kg | 0.012 μg/i.c. | 100%
11 | CCOC(=O)C1=C(C)NC(C)=C(C(=O)OCCOCCCc2ccc(Cc3cccnc3)cc2)C1c1cccc([N+](=O)[O-])c1 (stereo not drawn) [compound 18] | 233 | 40.9% | – | – | 0.026 μg/i.c. | –
12 | CCOC(=O)C1=C(C)NC(C)=C(C(=O)OCCOC/C(C)=C/c2ccc(Oc3cccnc3)cc2)C1c1cccc([N+](=O)[O-])c1 (stereo not drawn) [compound 19] | 550 | – | – | ≥ 75 mg/kg | 0.017 μg/i.c. | 77.8%
13 | CCOC(=O)C1=C(C)NC(C)=C(C(=O)OCCOCCCc2ccc(Oc3cccnc3)cc2)C1c1cccc([N+](=O)[O-])c1 (stereo not drawn) [compound 20] | 535 | – | – | – | 0.024 μg/i.c. | 70%
14 | CCOC(=O)C1=C(C)NC(C)=C(C(=O)OCCOC/C(C)=C/c2ccc(Cc3cccnc3)s2)C1c1cccc([N+](=O)[O-])c1 (stereo not drawn) [compound 21] | – | – | – | ≥ 75 mg/kg | – | 80%
15 | COC(=O)C1=C(C)NC(C)=C(C(=O)OCCOC/C=C/c2ccc(Cc3cccnc3)cc2)C1c1cccc([N+](=O)[O-])c1 (stereo not drawn) [compound 22] | – | – | – | – | 0.016 μg/i.c. | –
16 | CC1=C(C(=O)OCCOC/C=C/c2ccc(Cc3cccnc3)cc2)C(c2cccc([N+](=O)[O-])c2)C(C(=O)OCCN(C)Cc2ccccc2)=C(C)N1 (stereo not drawn) [compound 23] | – | – | – | – | 0.019 μg/i.c. | –
17 | CC1=C(C(=O)OCCOC/C=C/c2ccc(Cc3cccnc3)cc2)C(c2cccc([N+](=O)[O-])c2)C(C(=O)OC(C)C)=C(C)N1 (stereo not drawn) [compound 24] | 286 | – | – | – | – | 90%
18 | COC(=O)C1=C(C)NC(C)=C(C(=O)OCCOC/C=C/c2ccc(Cc3cccnc3)cc2)C1c1ccccc1C(F)(F)F (stereo not drawn) [compound 26] | – | – | – | – | – | 90%
19 | CCOC(=O)C1=C(C)NC(C)=C(C(=O)OCCOCCc2ccc(Cc3cccnc3)cc2)C1c1cccc([N+](=O)[O-])c1 (stereo not drawn) [compound 27] | – | 35.7% | – | – | – | 77.8%
20 | CCOC(=O)C1=C(C)NC(C)=C(C(=O)OCCSC/C=C/c2ccc(Cc3cccnc3)cc2)C1c1cccc([N+](=O)[O-])c1 (stereo not drawn) [compound 28] | – | 31.2% | – | – | – | –
21 | CC1=C(C(=O)OCCOC/C(C)=C/c2ccc(Cc3cccnc3)cc2)C(c2cccc([N+](=O)[O-])c2)C(C(=O)OC(C)C)=C(C)N1 (stereo not drawn) [compound 29] | 426 | 56.8% | – | – | 0.019 μg/i.c. | 90%
22 | CCOC(=O)C1=C(C)NC(C)=C(C(=O)OCCCCOC/C(C)=C/c2ccc(Cc3cccnc3)cc2)C1c1cccc([N+](=O)[O-])c1 (stereo not drawn) [compound 30] | 397 | – | – | ≥ 50 mg/kg | – | –
23 | CCOC(=O)C1=C(C)NC(C)=C(C(=O)OCC(C)COC/C(C)=C/c2ccc(Cc3cccnc3)cc2)C1c1cccc([N+](=O)[O-])c1 (stereo not drawn) [compound 31] | – | 50.5% | – | – | – | –
24 | COC(=O)C1=C(C)NC(C)=C(C(=O)OCC(C)(C)COC/C(C)=C/c2ccc(Cc3cccnc3)cc2)C1c1cccc([N+](=O)[O-])c1 (stereo not drawn) [compound 32] | 417 | – | – | – | – | –
25 | CCOC(=O)C1=C(C)NC(C)=C(C(=O)OCC(C)(C)COC/C(C)=C/c2ccc(Cc3cccnc3)cc2)C1c1cccc([N+](=O)[O-])c1 (stereo not drawn) [compound 33] | 333 | 41.5% | – | – | – | –
